Data as given in ChEMBL document CHEMBL1201862, “PubChem BioAssay data set” (2004).
One block for each compound: values may come before it. Calls of active or inactive are those of the source.

Assays:
[1] = target: T1, Nucleotide-binding oligomerization domain-containing protein 1 (Homo sapiens, UniProt Q9Y239); assay: SAR analysis of compounds that inhibit NOD1 - Set 3. [Related pubchem assays (depositor defined):AID1566, AID1575, AID1578, AID1849, AID1852, AID2333, AID2335, AID2466]; type: functional
T1 sequence (Q9Y239 whole entry): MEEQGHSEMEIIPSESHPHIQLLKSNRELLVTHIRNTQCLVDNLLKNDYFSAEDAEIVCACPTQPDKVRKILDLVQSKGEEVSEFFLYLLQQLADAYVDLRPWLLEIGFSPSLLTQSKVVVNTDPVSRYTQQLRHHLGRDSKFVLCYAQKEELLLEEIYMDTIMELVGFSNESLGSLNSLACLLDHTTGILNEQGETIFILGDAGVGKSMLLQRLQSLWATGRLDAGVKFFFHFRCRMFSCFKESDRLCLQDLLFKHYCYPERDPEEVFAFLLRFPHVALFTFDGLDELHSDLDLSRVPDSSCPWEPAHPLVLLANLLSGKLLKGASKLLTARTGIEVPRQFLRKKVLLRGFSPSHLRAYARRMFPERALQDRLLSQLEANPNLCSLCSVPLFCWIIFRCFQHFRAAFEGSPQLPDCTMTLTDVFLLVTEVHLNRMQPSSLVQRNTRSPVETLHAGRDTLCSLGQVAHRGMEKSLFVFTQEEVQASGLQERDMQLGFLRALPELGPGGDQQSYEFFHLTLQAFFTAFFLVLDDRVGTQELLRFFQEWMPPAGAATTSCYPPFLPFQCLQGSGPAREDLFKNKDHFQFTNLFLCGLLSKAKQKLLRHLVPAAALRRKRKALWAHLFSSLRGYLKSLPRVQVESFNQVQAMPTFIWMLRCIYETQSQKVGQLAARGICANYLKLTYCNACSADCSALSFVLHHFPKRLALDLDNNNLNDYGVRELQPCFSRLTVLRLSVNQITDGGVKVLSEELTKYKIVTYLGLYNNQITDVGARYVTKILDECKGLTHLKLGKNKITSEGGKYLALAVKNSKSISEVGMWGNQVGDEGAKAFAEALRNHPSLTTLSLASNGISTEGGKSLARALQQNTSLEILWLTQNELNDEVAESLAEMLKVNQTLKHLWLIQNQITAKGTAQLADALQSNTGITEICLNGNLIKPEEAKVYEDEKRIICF

Tumor necrosis factor = Tumor necrosis factor (Homo sapiens, UniProt P01375); assay: analog potency on TNFa NF-kB signaling – cell-based, set 3, SAR follow-up (AID 2801); type: functional
Sequence of Tumor necrosis factor (P01375 whole entry): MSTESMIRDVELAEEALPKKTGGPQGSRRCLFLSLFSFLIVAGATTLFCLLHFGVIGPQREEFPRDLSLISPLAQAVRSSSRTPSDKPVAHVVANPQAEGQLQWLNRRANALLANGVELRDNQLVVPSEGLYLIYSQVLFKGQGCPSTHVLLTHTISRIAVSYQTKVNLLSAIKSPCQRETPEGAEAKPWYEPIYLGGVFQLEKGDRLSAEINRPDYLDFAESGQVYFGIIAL

HEK293 = assay: SAR analysis of compounds that are cytotoxic to HEK293 - Set 3. [Related pubchem assays (depositor defined):AID1575, AID1578, AID1848, AID1849, AID2001, AID2333, AID2334, AID2335, AID2337, AID2469]; type: functional, cell-based; settings: Homo sapiens
[2] = target: Nucleotide-binding oligomerization domain-containing protein 2 (Homo sapiens, UniProt Q9HC29); assay: inhibition of MDP-driven NOD2 NF-kB reporter – cell-based, set 3, SAR follow-up (AID 2799); type: functional
Sequence of Nucleotide-binding oligomerization domain-containing protein 2 (Q9HC29 whole entry, the tested form may be a part): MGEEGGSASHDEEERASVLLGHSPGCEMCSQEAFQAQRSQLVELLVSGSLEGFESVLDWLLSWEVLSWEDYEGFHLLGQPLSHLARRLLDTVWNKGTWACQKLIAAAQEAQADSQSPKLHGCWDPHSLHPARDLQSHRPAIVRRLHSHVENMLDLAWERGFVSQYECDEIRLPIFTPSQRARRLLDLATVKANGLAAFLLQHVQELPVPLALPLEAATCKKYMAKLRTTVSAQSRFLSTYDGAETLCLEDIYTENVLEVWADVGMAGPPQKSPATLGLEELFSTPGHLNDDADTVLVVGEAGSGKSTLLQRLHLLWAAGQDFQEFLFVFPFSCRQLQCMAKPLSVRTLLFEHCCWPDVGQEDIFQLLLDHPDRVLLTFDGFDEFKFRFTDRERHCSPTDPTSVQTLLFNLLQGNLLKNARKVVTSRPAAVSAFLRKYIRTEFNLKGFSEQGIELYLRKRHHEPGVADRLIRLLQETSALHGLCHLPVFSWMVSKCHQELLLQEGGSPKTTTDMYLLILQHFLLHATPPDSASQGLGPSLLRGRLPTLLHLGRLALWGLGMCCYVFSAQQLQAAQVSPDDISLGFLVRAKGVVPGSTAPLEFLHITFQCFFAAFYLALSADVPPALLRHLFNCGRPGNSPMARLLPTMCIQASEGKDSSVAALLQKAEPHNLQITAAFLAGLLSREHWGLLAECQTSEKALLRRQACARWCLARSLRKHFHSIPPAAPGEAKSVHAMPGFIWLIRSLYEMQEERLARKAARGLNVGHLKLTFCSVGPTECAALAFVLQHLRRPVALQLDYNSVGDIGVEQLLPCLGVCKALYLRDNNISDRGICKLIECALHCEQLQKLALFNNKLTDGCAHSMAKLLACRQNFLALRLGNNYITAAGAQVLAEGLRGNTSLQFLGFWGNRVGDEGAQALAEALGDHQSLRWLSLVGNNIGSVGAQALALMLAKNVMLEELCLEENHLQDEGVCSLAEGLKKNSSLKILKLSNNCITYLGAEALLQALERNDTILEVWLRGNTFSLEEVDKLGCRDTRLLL

Cytochrome P450 2C19 = Cytochrome P450 2C19 (Homo sapiens, UniProt P33261); assay: Cytochrome panel assay with activity outcomes. Panel member name: p450-cyp2c19 Compounds with AC50 equal or less than 10 uM are considered active; type: functional
Sequence of Cytochrome P450 2C19 (P33261 whole entry): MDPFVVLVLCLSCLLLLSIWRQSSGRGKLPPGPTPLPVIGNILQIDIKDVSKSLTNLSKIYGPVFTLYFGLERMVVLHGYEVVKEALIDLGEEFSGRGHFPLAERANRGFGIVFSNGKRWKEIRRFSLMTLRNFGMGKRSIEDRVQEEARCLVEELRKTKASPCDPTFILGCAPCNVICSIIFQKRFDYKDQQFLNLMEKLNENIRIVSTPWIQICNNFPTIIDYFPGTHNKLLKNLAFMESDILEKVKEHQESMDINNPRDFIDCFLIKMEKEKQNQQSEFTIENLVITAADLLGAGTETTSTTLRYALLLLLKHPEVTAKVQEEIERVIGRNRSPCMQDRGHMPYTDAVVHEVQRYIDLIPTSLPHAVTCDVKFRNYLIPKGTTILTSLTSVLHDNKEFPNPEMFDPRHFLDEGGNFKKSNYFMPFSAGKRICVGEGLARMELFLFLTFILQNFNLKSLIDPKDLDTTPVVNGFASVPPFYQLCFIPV

Cytochrome P450 2D6 = Cytochrome P450 2D6 (Homo sapiens, UniProt P10635);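 note: CYP2D6 member of a cytochrome P450 panel assay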
Sequence of Cytochrome P450 2D6 (P10635 whole entry): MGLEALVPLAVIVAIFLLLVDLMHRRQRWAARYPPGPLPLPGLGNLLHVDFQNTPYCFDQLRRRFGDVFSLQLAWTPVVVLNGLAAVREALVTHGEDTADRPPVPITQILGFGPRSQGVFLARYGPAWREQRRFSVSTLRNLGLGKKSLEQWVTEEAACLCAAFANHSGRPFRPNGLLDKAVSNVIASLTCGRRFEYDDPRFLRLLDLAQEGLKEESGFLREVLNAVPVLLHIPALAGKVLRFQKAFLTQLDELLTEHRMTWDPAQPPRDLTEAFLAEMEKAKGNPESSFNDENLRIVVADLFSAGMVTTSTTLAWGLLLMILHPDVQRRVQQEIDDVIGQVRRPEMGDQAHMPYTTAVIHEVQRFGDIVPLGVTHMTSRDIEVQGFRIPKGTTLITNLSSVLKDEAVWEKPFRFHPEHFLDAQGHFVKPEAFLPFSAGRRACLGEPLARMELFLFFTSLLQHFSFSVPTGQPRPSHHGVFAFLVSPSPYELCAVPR

[3] = Luminescence Cell-Based Dose Retest to Confirm Inhibitors of Cancer Stem Cells. [Related pubchem assays (depositor defined):AID2717, AID2721]; type: functional; settings: Homo sapiens
[4] = viability loss of HMLE_sh_eGFP cells – cell-based, luminescence, counter-screen for HMLE_sh_ECad selective toxicity project, dose response (AID 463074); type: functional, Homo sapiens;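 note: HMLE human mammary epithelial cells expressing control shRNA against eGFP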

Compound: Nc1nc2ccccc2n1S(=O)(=O)c1ccc(Cl)c(Cl)c1
IC50 [1]: 529 nM (active) | IC50 (Tumor necrosis factor): > 20 µM (inactive) | IC50 (HEK293): > 20 µM (inactive) | IC50 [2]: > 20 µM (inactive)

AC50 (Cytochrome P450 2C19): inconclusive | AC50 (Cytochrome P450 2D6): inconclusive
Compound: CC[C@@]1([N+](=O)[O-])C[C@H]2C=C[C@@H]1C2.CC[C@@]1([N+](=O)[O-])C[C@H]2C=C[C@@H]1C2

Compound: COc1cc(F)cc(-c2ccc3c(c2)c(-c2cccs2)c(-c2cc(OC)cc(OC)c2)n3C)c1
AC50 [3]: 16.5 µM (active) | AC50 [4]: 26.5 µM (active)
